Results as given in patent publication US10683297B2 (Sunshine Lake Pharma Co., Ltd., priority 2017, dated 2020).
pIC50: −log10 of the molar value.

Experiments:
JAK2 (h) = biological target: T1, JAK2 (h) (Homo sapiens, UniProt O60674); test: JAK2 (h) kinase assay; format: biochemical; conditions: [γ-33P-ATP] 10 μM or KM values; 40 minutes at room temperature
T1 construct: purchased Millipore UK Ltd (assays performed there as a service)
Description: Kinase assays can be performed by measurement of incorporation of γ-^33P ATP into immobilized myelin basic protein (MBP). High binding white 384 well plates (Greiner) are coated with MBP (Sigma # M-1891) by incubation of 60 μL well of 20 μg/mL MBP in Tris-buffered saline (TBS; 50 mM Tris pH 8.0, 138 mM NaCl, 2.7 mM KCl) for 24 h at 4° C. Plates are washed 3× with 100 μL TBS. Kinase reactions are carried out in a total volume of 34 μL in kinase buffer (according to the need to make, for example, 5 mM Hepes pH 7.6, 15 mM NaCl, 0.01% bovine gamma globulin (Sigma #1-5506), 10 mM MgCl2, 1 mM DTT, 0.02% TritonX-100). Compound dilutions are performed in DMSO and added to assay wells to a final DMSO concentration of 1%. Each data point is measured in duplicate, and at least two duplicate assays are performed for each individual compound determination. Enzyme is added to final concentrations of 10 nM or 20 nM, for example. A mixture of unlabeled ATP and γ-^33P ATP is added to start the reaction (2×10^6 cpm of γ-^33P ATP per well (3000 Ci/mmole) and 10 μM unlabeled ATP, typically. The reactions are carried out for 1 hour at room temperature with shaking. Plates are washed 7× with TBS, followed by the addition of 50 μL well scintillation fluid (Wallac). Plates are read using a Wallac Trilux counter. This is only one format of such assays; various other formats are possible, as known to one skilled in the art.
The above assay procedure can be used to determine the IC50 for inhibition and/or the inhibition constant, Ki. […] The IC50 value is estimated by preparing a 10 point curve using a ½ log dilution series (for example, a typical curve may be prepared using the following compound concentrations: 3 μM, 1 μM, 0.3 μM, 0.1 μM, 0.03 μM, 0.01 μM, 0.003 μM, 0.001 μM, 0.0003 μM and 0 μM).
JAK2 (h) is incubated with 8 mM MOPS pH 7.0, 0.2 mM EDTA, 100 μM […], 10 mM MgAcetate and [γ-^33P-ATP] […] The reaction is initiated by the addition of the MgATP mix. After incubation for 40 minutes at room temperature, the reaction is stopped by the addition of 3% phosphoric acid solution. 10 μL of the reaction is then spotted onto a P30 filtermat and washed three times for 5 minutes in 75 mM phosphoric acid and once in methanol prior to drying and scintillation counting.
The kinase assays described herein were performed at Millipore UK Ltd, Dundee Technology Park, Dundee DD2 1SW, UK.

JAK1 (h) = biological target: T2, JAK1 (h) (Homo sapiens, UniProt P23458); test: JAK1 (h) kinase assay; format: biochemical; conditions: [γ-33P-ATP] 10 μM or KM values; 40 minutes at room temperature
T2 construct: purchased Millipore UK Ltd (assays performed there as a service)
T2 sequence (P23458 whole entry): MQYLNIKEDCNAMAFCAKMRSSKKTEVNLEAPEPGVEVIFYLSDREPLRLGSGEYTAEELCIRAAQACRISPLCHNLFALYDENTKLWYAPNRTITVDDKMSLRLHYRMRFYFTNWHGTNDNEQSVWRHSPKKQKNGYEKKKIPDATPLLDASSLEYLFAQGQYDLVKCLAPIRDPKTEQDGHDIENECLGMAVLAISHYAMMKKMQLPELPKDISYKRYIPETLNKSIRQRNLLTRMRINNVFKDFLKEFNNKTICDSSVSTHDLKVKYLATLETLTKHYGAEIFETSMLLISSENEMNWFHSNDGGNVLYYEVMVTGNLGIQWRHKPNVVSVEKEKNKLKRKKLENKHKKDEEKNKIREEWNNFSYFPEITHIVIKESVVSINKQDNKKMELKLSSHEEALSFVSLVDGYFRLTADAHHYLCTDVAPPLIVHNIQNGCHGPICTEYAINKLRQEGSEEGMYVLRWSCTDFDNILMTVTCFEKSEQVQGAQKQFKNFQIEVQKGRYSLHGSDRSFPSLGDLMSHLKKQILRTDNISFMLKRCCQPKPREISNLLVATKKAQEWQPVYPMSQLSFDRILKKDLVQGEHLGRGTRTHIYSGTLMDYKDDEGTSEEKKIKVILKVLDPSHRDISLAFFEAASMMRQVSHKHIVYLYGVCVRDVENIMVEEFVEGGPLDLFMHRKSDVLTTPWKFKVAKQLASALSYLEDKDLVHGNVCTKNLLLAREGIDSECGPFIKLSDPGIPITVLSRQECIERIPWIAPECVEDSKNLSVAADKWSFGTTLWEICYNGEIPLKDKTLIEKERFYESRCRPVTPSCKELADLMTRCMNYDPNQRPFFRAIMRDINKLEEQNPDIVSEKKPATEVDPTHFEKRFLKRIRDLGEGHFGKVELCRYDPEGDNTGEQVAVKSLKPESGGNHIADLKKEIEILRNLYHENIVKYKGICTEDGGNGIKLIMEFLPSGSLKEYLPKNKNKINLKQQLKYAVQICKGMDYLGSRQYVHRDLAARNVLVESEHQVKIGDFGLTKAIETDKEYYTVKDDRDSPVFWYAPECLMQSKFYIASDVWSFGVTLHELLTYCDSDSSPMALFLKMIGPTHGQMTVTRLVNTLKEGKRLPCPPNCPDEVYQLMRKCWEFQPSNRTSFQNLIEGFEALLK
Method in brief: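 Radiometric filter-binding assay: human JAK1 incubated 40 min at room temperature in 20 mM Tris/HCl pH 7.5, 0.2 mM EDTA, 500 μM peptide substrate, 10 mM Mg acetate, with [γ-33P]ATP at 10 μM or KM. Reaction stopped with phosphoric acid; P30 filtermat scintillation counting.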

[1] = Compound stability in human liver microsomes; format: in vitro ADME; conditions: for half-life at 5 μM: human liver microsomes 0.5 mg protein/mL, compound 5 μM, NADPH 1.0 mM, pH 7.4, 37° C., read-out: Human T1/2; for CLint scaled at 5 μM: liver microsomes, pH 7.4, in vivo CLint extrapolated from human liver microsome incubation
Method in brief: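 Compounds (5 μM) incubated at 37 °C with human or rat liver microsomes (0.5 mg protein/mL) and 1.0 mM NADPH in 100 mM phosphate buffer pH 7.4, 0.05% DMSO, in duplicate. Sampled 0–60 min, quantified by LC/MS/MS as % of time zero; CLint extrapolated.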

T1 sequence (O60674 whole entry): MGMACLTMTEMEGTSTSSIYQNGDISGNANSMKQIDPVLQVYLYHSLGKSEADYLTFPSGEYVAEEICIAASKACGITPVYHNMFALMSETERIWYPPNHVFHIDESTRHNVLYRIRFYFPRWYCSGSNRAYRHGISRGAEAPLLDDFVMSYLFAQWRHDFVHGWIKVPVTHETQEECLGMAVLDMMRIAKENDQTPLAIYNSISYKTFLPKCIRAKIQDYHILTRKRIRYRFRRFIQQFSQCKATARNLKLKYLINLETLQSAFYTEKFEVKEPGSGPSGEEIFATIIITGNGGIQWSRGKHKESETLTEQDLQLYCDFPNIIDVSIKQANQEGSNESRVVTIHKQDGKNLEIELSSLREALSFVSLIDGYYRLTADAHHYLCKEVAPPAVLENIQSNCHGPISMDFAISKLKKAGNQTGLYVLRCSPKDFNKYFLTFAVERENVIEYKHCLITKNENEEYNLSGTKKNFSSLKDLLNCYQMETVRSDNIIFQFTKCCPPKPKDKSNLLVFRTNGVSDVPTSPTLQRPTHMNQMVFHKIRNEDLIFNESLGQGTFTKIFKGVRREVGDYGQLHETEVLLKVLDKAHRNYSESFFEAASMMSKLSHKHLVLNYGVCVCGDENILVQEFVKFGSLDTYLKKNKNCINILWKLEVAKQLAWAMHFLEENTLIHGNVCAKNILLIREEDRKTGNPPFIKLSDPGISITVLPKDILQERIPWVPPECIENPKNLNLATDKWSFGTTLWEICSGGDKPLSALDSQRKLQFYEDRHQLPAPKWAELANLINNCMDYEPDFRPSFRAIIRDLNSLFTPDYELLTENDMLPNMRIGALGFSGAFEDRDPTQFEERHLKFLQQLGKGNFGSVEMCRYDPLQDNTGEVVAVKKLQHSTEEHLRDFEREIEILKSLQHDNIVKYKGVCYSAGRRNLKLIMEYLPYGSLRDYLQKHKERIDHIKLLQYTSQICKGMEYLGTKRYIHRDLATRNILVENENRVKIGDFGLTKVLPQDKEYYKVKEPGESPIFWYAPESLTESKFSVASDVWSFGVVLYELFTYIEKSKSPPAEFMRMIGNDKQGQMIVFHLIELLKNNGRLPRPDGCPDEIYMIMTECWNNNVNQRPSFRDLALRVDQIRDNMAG

pIC50 (JAK2 (h)) | pIC50 (JAK1 (h)) | half-life at 5 μM [1] | CLint scaled at 5 μM [1] | SMILES
8.15 | 9.30 |  |  | Cc1nc2cc(Nc3ncc(Cl)c(NC4CCN(c5ccc(C#N)cn5)CC4)n3)ccn2n1 [Example 32, 6-(4-((5-chloro-2-((2-methyl-[1,2,4]triazolo[1,5-a]pyridin-7-yl)amino)pyrimidin-4-yl)amino)piperidin-1-yl)nicotinonitrile]
8.30 | 9.22 | 121 min | 14.4 mL/min/kg | CC(C)(O)c1nc2cc(Nc3ncc(Cl)c(NC4CCN(c5ccc(C#N)cn5)CC4)n3)ccn2n1 [Example 39, 6-(4-((5-chloro-2-((2-(2-hydroxypropan-2-yl)-[1,2,4]triazolo[1,5-a]pyridin-7-yl)amino)pyrimidin-4-yl)amino)piperidin-1-yl)nicotinonitrile]
9.00 | > 9.52 | 361 min | 4.8 mL/min/kg | CC(C)(O)c1nnc2cc(Nc3ncc(Cl)c(NC4CCN(c5ccc(C#N)cn5)CC4)n3)ccn12 [Example 40]
9.00 | > 9.52 | 63.1 min | 27.5 mL/min/kg | Cn1cnc2cc(Nc3ncc(Cl)c(NC4CCN(c5ccc(C#N)cn5)CC4)n3)ccc21 [Example 46, 6-(4-((5-chloro-2-((1-methyl-1H-benzo[d]imidazol-5-yl)amino)pyrimidin-4-yl)amino)piperidin-1-yl)nicotinonitrile]
9.15 | > 9.52 | 37 min | 46.9 mL/min/kg | Cc1nc2cc(Nc3ncc(Cl)c(NC4CCN(c5ccc(C#N)cn5)CC4)n3)ccc2n1C [Example 48, 6-(4-((5-chloro-2-((1,2-dimethyl-1H-benzo[d]imidazol-5-yl)amino)pyrimidin-4-yl)amino)piperidin-1-yl)nicotinonitrile]
8.40 | 9.40 | 15.6 min | 112 mL/min/kg | N#Cc1ccc(N2CCC(Nc3nc(Nc4ccc5c(c4)nnn5CC4CC4)ncc3Cl)CC2)nc1 [Example 60, 6-(4-((5-chloro-2-((1-(cyclopropylmethyl)-1H-benzo[d][1,2,3]triazol-5-yl)amino)pyrimidin-4-yl)amino)piperidin-1-yl)nicotinonitrile]
9.00 | > 9.52 | 128 min | 13.6 mL/min/kg | CC(O)Cn1cnc2cc(Nc3ncc(Cl)c(NC4CCN(c5ccc(C#N)cn5)CC4)n3)ccc21 (stereo not shown) [Example 61, 6-(4-((5-chloro-2-((1-(2-hydroxypropyl)-1H-benzo[d]imidazol-5-yl)amino)pyrimidin-4-yl)amino)piperidin-1-yl)nicotinonitrile]
8.52 | 9.52 | 10.6 min | 164 mL/min/kg | CC(C)(O)c1cnc2cc(Nc3ncc(Cl)c(NC4CCN(c5ccc(C#N)cn5)CC4)n3)ccn12 [Example 68, 6-(4-((5-chloro-2-((3-(2-hydroxypropan-2-yl)imidazo[1,2-a]pyridin-7-yl)amino)pyrimidin-4-yl)amino)piperidin-1-yl)nicotinonitrile]
8.70 | 9.30 | 496 min | 3.5 mL/min/kg | CC(C)(O)Cn1nnc2cc(Nc3ncc(Cl)c(NC4CCN(c5ccc(C#N)cn5)CC4)n3)ccc21 [Example 69, 6-(4-((5-chloro-2-((1-(2-hydroxy-2-methylpropyl)-1H-benzo[d][1,2,3]triazol-5-yl)amino)pyrimidin-4-yl)amino)piperidin-1-yl)nicotinonitrile]
8.10 | 9.30 | 10.3 min | 168 mL/min/kg | CC(C)(O)c1cn2ccc(Nc3ncc(Cl)c(NC4CCN(c5ccc(C#N)cn5)CC4)n3)cc2n1 [Example 70, 6-(4-((5-chloro-2-((2-(2-hydroxypropan-2-yl)imidazo[1,2-a]pyridin-7-yl)amino)pyrimidin-4-yl)amino)piperidin-1-yl)nicotinonitrile]

Second part, the compound before the results:

SMILES | pIC50 (JAK2 (h)) | pIC50 (JAK1 (h)) | half-life at 5 μM [1] | CLint scaled at 5 μM [1]
CCC1CN(c2ccc(C#N)cn2)CCC1Nc1nc(Nc2ccn3c(C)cnc3c2)ncc1Cl (stereo not shown) [Example 2, 6-(4-((5-chloro-2-((3-methylimidazo[1,2-a]pyridin-7-yl)amino)pyrimidin-4-yl)amino)-3-ethylpiperidin-1-yl)nicotinonitrile] | 8.52 | 9.00 | 36.2 min | 48.1 mL/min/kg
CCC1CN(c2ccc(C#N)nn2)CCC1Nc1nc(Nc2ccn3c(C)cnc3c2)ncc1Cl (stereo not shown) [Example 3, 6-(4-((5-chloro-2-((3-methylimidazo[1,2-a]pyridin-7-yl)amino)pyrimidin-4-yl)amino)-3-ethylpiperidin-1-yl)pyridazine-3-carbonitrile] | 8.70 | 9.22 | 56.3 min | 30.9 mL/min/kg
Cc1cnc2cc(Nc3ncc(Cl)c(NC4CCN(c5ccc(C#N)nn5)CC4)n3)ccn12 [Example 12, 6-(4-((5-chloro-2-((3-methylimidazo[1,2-a]pyridin-7-yl)amino)pyrimidin-4-yl)amino)piperidin-1-yl)pyridazine-3-carbonitrile] | 7.80 | 9.40 | 117 min | 14.9 mL/min/kg
N#Cc1ccc(N2CCC(Nc3nc(Nc4ccn5c(C(F)F)nnc5c4)ncc3Cl)CC2)nc1 [Example 30, 6-(4-((5-chloro-2-((3-(difluoromethyl)-[1,2,4]triazolo[4,3-a]pyridin-7-yl)amino)pyrimidin-4-yl)amino)piperidin-1-yl)nicotinonitrile] | 8.00 | 9.05 | 126 min | 13.8 mL/min/kg
Cn1nnc2cc(Nc3ncc(Cl)c(NC4CCN(c5ccc(C#N)nn5)CC4)n3)ccc21 [Example 47, 6-(4-((5-chloro-2-((l-methyl-1H-benzo[d][1,2,3]triazol-5-yl)amino)pyrimidin-4-yl)amino)piperidin-1-yl)pyridazine-3-carbonitrile] | 8.15 | > 9.52 | 108 min | 16.1 mL/min/kg
CC(C)(O)c1nc2cc(Nc3ncc(Cl)c(NC4CCN(c5ccc(C#N)nn5)CC4)n3)ccn2n1 [Example 55, 6-(4-((5-chloro-2-((2-(2-hydroxypropan-2-yl)-[1,2,4]triazolo[1,5-a]pyridin-7-yl)amino)pyrimidin-4-yl)amino)piperidin-1-yl)pyridazine-3-carbonitrile] | 7.85 | 9.05 | 1370 min | 1.3 mL/min/kg
CC(O)Cc1nc2cc(Nc3ncc(Cl)c(NC4CCN(c5ccc(C#N)nn5)CC4)n3)ccn2n1 (stereo not shown) [Example 56, 6-(4-((5-chloro-2-((2-(2-hydroxypropyl)-[1,2,4]triazolo[1,5-a]pyridin-7-yl)amino)pyrimidin-4-yl)amino)piperidin-1-yl)pyridazine-3-carbonitrile] | 7.82 | 9.30 | 47.7 min | 36.5 mL/min/kg
CC(C)(O)Cc1nc2ccc(Nc3ncc(Cl)c(NC4CCN(c5ccc(C#N)cn5)CC4)n3)cn2n1 [Example 67, 6-(4-((5-chloro-2-((2-(2-hydroxy-2-methylpropyl)-[1,2,4]triazolo[1,5-a]pyridin-6-yl)amino)pyrimidin-4-yl)amino)piperidin-1-yl)nicotinonitrile] | 7.41 | 9.22 | 127 min | 13.7 mL/min/kg
